Test results: patent publication US9695155B2, “Herbicidal substituted pyrimidinyloxy benzene compounds” (E. I. DU PONT DE NEMOURS AND COMPANY, priority 2013, dated 2017)

Tests used:
lambsquarters = assay: Test E preemergence; type: in vivo, Chenopodium album; conditions: for Lambsquarters plant response rating: scale 0 to 100 (0 no effect, 100 complete control); for Plant response rating, Lambsquarters: scale 0 to 100, 0 no effect, 100 complete control
Method in brief: (§1)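 Response was scored visually on a 0-100 scale (100 = complete control) versus controls after 14 to 21 days in the greenhouse. Test chemicals, formulated with surfactant in a non-phytotoxic solvent mixture, had been applied preemergence to seeds in silt loam soil or postemergence to 1- to 4-leaf plants in potting medium.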

palmer pigweed = assay: Test E preemergence; type: in vivo, Amaranthus palmeri; conditions: for Pigweed, Palmer plant response rating: scale 0 to 100 (0 no effect, 100 complete control); for Plant response rating, Pigweed, Palmer: scale 0 to 100, 0 no effect, 100 complete control
Method in brief: as §1

large (Lg) crabgrass = assay: Test E preemergence; type: in vivo, Digitaria sanguinalis; conditions: for Crabgrass, Large plant response rating: scale 0 to 100 (0 no effect, 100 complete control); for Plant response rating, Crabgrass, Large: scale 0 to 100, 0 no effect, 100 complete control
Method in brief: as §1

fall panicum [1] = assay: Test E preemergence; type: in vivo, Panicum dichotomiflorum; conditions: for Panicum, Fall plant response rating: scale 0 to 100 (0 no effect, 100 complete control); for Plant response rating, Panicum, Fall: scale 0 to 100, 0 no effect, 100 complete control
Method in brief: as §1

johnsongrass = assay: Test E preemergence; type: in vivo, Sorghum halepense; conditions: for Johnsongrass plant response rating: scale 0 to 100 (0 no effect, 100 complete control); for Plant response rating, Johnsongrass: scale 0 to 100, 0 no effect, 100 complete control
Method in brief: as §1

sandbur = assay: Test E preemergence; type: in vivo, Cenchrus echinatus; conditions: for Sandbur plant response rating: scale 0 to 100 (0 no effect, 100 complete control); for Plant response rating, Sandbur: scale 0 to 100, 0 no effect, 100 complete control
Method in brief: as §1

arrowleaf sida = assay: Test E preemergence; type: in vivo, Sida rhombifolia; conditions: for Arrowleaf Sida plant response rating: scale 0 to 100 (0 no effect, 100 complete control); for Plant response rating, Arrowleaf Sida: scale 0 to 100, 0 no effect, 100 complete control
Method in brief: as §1

kochia = assay: Test E preemergence; type: in vivo, Kochia scoparia; conditions: for Kochia plant response rating: scale 0 to 100 (0 no effect, 100 complete control); for Plant response rating, Kochia: scale 0 to 100, 0 no effect, 100 complete control
Method in brief: as §1

[2] = system: waterhemp_RES1 (ALS & Triazine resistant common waterhemp); assay: Test E postemergence; type: in vivo, Amaranthus rudis
Method in brief: as §1

[3] = system: waterhemp_RES2 (ALS & HPPD resistant common waterhemp); assay: Test E postemergence; type: in vivo, Amaranthus rudis
Method in brief: as §1

waterhemp = assay: Test E postemergence; type: in vivo, Amaranthus rudis
Method in brief: as §1

fall panicum [4] = assay: Test E postemergence; type: in vivo, Panicum dichotomiflorum
Method in brief: as §1

Italian ryegrass = assay: Test E postemergence; type: in vivo, Lolium multiflorum
Method in brief: as §1

dayflower = assay: Test E postemergence; type: in vivo, Commelina virginica
Method in brief: as §1

hairy beggarticks = assay: Test E postemergence; type: in vivo, Bidens pilosa
Method in brief: as §1

sedge, umbrella = assay: Test C flooded paddy test; type: in vivo, Cyperus difformis; conditions: Flood, scale 0 to 100 (0 no effect, 100 complete control), 13 to 15 days
Method in brief: (§2)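 Compound was added to standing water 3 cm above soil, flood maintained, and plants held in a greenhouse before visual scoring against controls at 13 to 15 days.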

barnyardgrass = assay: Test C flooded paddy test; type: in vivo, Echinochloa crus-galli; conditions: Flood, scale 0 to 100 (0 no effect, 100 complete control), 13 to 15 days
Method in brief: as §2

[5] = Postemergence, 62 g ai/ha, scale 0 to 100
[6] = Postemergence, 125 g ai/ha, scale 0 to 100
[7] = Postemergence, 31 g ai/ha, scale 0 to 100
[8] = Postemergence, 250 g ai/ha, scale 0 to 100
[9] = postemergence, 16 g ai/ha, scale 0 to 100, 0 no effect, 100 complete control

N#Cc1cccc(Oc2ncc(Cl)cn2)c1-n1cc(Cl)cn1 [Compound 72]
Lambsquarters plant response rating (lambsquarters; 16 g ai/ha): 0 | Lambsquarters plant response rating (lambsquarters; 31 g ai/ha): 90 | Lambsquarters plant response rating (lambsquarters; 62 g ai/ha): 100 | Plant response rating, Lambsquarters (lambsquarters; 125 g ai/ha): 100 | Plant response rating, Lambsquarters (lambsquarters; 250 g ai/ha): 100 | Pigweed, Palmer plant response rating (palmer pigweed; 16 g ai/ha): 95 | Pigweed, Palmer plant response rating (palmer pigweed; 31 g ai/ha): 100 | Pigweed, Palmer plant response rating (palmer pigweed; 62 g ai/ha): 100 | Plant response rating, Pigweed, Palmer (palmer pigweed; 125 g ai/ha): 100 | Plant response rating, Pigweed, Palmer (palmer pigweed; 250 g ai/ha): 100 | Crabgrass, Large plant response rating (large (Lg) crabgrass; 16 g ai/ha): 50 | Crabgrass, Large plant response rating (large (Lg) crabgrass; 31 g ai/ha): 80 | Crabgrass, Large plant response rating (large (Lg) crabgrass; 62 g ai/ha): 100 | Plant response rating, Crabgrass, Large (large (Lg) crabgrass; 125 g ai/ha): 100 | Plant response rating, Crabgrass, Large (large (Lg) crabgrass; 250 g ai/ha): 100 | Panicum, Fall plant response rating (fall panicum [1]; 16 g ai/ha): 0 | Panicum, Fall plant response rating (fall panicum [1]; 31 g ai/ha): 65 | Panicum, Fall plant response rating (fall panicum [1]; 62 g ai/ha): 98 | Plant response rating, Panicum, Fall (fall panicum [1]; 125 g ai/ha): 100 | Plant response rating, Panicum, Fall (fall panicum [1]; 250 g ai/ha): 100 | Johnsongrass plant response rating (johnsongrass; 16 g ai/ha): 0 | Johnsongrass plant response rating (johnsongrass; 31 g ai/ha): 0 | Johnsongrass plant response rating (johnsongrass; 62 g ai/ha): 40 | Plant response rating, Johnsongrass (johnsongrass; 125 g ai/ha): 95 | Plant response rating, Johnsongrass (johnsongrass; 250 g ai/ha): 98 | Sandbur plant response rating (sandbur; 16 g ai/ha): 25 | Sandbur plant response rating (sandbur; 31 g ai/ha): 40 | Sandbur plant response rating (sandbur; 62 g ai/ha): 30 | Plant response rating, Sandbur (sandbur; 125 g ai/ha): 35 | Plant response rating, Sandbur (sandbur; 250 g ai/ha): 50 | Arrowleaf Sida plant response rating (arrowleaf sida; 16 g ai/ha, preemergence): 20 | Arrowleaf Sida plant response rating (arrowleaf sida; 31 g ai/ha, preemergence): 40 | Plant response rating, Arrowleaf Sida (arrowleaf sida; Preemergence, 62 g ai/ha): 40 | Plant response rating, Arrowleaf Sida (arrowleaf sida; preemergence, 125 g ai/ha): 100 | Plant response rating, Arrowleaf Sida (arrowleaf sida; preemergence, 250 g ai/ha): 100 | Kochia plant response rating (kochia; 16 g ai/ha): 10 | Kochia plant response rating (kochia; 31 g ai/ha): 75 | Kochia plant response rating (kochia; 62 g ai/ha): 98 | Plant response rating, Kochia (kochia; 125 g ai/ha): 100 | Plant response rating, Kochia (kochia; 250 g ai/ha): 100 | Plant response rating, Waterhemp_RES1 [2, 5]: 75 | Plant response rating, Waterhemp_RES1 [2, 6]: 95 | Plant response rating, Waterhemp_RES2 [3, 5]: 80 | Plant response rating, Waterhemp_RES2 [3, 6]: 90 | Plant response rating, Waterhemp (waterhemp; [5]): 80 | Plant response rating, Waterhemp (waterhemp; [6]): 98 | Plant response rating, Panicum, Fall (fall panicum [4]; [5]): 10 | Plant response rating, Panicum, Fall (fall panicum [4]; [6]): 10 | Plant response rating, Ryegrass, Italian (Italian ryegrass; [5]): 0 | Plant response rating, Ryegrass, Italian (Italian ryegrass; [6]): 5 | Plant response rating, Dayflower, VA (dayflower; [5]): 50 | Plant response rating, Dayflower, VA (dayflower; [6]): 60 | Plant response rating, Beggarticks (hairy beggarticks; [5]): 70 | Plant response rating, Beggarticks (hairy beggarticks; [6]): 80

N#Cc1cnn(-c2c(C#N)cccc2Oc2ncc(Cl)cn2)c1 [Compound 200]
Plant response rating, Sedge, Umbrella (sedge, umbrella; 31 g ai/ha): 0 | Plant response rating, Sedge, Umbrella (sedge, umbrella; 62 g ai/ha): 80 | Plant response rating, Sedge, Umbrella (sedge, umbrella; 125 g ai/ha): 90 | Plant response rating, Sedge, Umbrella (sedge, umbrella; 250 g ai/ha): 90 | Plant response rating, Barnyardgrass (barnyardgrass; 31 g ai/ha): 0 | Plant response rating, Barnyardgrass (barnyardgrass; 62 g ai/ha): 0 | Plant response rating, Barnyardgrass (barnyardgrass; 125 g ai/ha): 0 | Plant response rating, Barnyardgrass (barnyardgrass; 250 g ai/ha): 25 | Lambsquarters plant response rating (lambsquarters; 31 g ai/ha): 65 | Lambsquarters plant response rating (lambsquarters; 62 g ai/ha): 80 | Plant response rating, Lambsquarters (lambsquarters; 125 g ai/ha): 98 | Plant response rating, Lambsquarters (lambsquarters; 250 g ai/ha): 100 | Pigweed, Palmer plant response rating (palmer pigweed; 31 g ai/ha): 40 | Pigweed, Palmer plant response rating (palmer pigweed; 62 g ai/ha): 100 | Plant response rating, Pigweed, Palmer (palmer pigweed; 125 g ai/ha): 100 | Plant response rating, Pigweed, Palmer (palmer pigweed; 250 g ai/ha): 100 | Crabgrass, Large plant response rating (large (Lg) crabgrass; 16 g ai/ha): 5 | Crabgrass, Large plant response rating (large (Lg) crabgrass; 31 g ai/ha): 35 | Crabgrass, Large plant response rating (large (Lg) crabgrass; 62 g ai/ha): 65 | Plant response rating, Crabgrass, Large (large (Lg) crabgrass; 125 g ai/ha): 80 | Plant response rating, Crabgrass, Large (large (Lg) crabgrass; 250 g ai/ha): 100 | Panicum, Fall plant response rating (fall panicum [1]; 31 g ai/ha): 75 | Panicum, Fall plant response rating (fall panicum [1]; 62 g ai/ha): 95 | Plant response rating, Panicum, Fall (fall panicum [1]; 125 g ai/ha): 100 | Plant response rating, Panicum, Fall (fall panicum [1]; 250 g ai/ha): 100 | Johnsongrass plant response rating (johnsongrass; 31 g ai/ha): 15 | Johnsongrass plant response rating (johnsongrass; 62 g ai/ha): 25 | Plant response rating, Johnsongrass (johnsongrass; 125 g ai/ha): 30 | Plant response rating, Johnsongrass (johnsongrass; 250 g ai/ha): 75 | Sandbur plant response rating (sandbur; 31 g ai/ha): 0 | Sandbur plant response rating (sandbur; 62 g ai/ha): 5 | Plant response rating, Sandbur (sandbur; 125 g ai/ha): 40 | Plant response rating, Sandbur (sandbur; 250 g ai/ha): 70 | Arrowleaf Sida plant response rating (arrowleaf sida; 16 g ai/ha, preemergence): 20 | Arrowleaf Sida plant response rating (arrowleaf sida; 31 g ai/ha, preemergence): 20 | Arrowleaf Sida plant response rating (arrowleaf sida; 62 g ai/ha, preemergence): 70 | Plant response rating, Arrowleaf Sida (arrowleaf sida; preemergence, 125 g ai/ha): 100 | Plant response rating, Arrowleaf Sida (arrowleaf sida; preemergence, 250 g ai/ha): 100 | Kochia plant response rating (kochia; 31 g ai/ha): 60 | Kochia plant response rating (kochia; 62 g ai/ha): 95 | Plant response rating, Kochia (kochia; 125 g ai/ha): 100 | Plant response rating, Kochia (kochia; 250 g ai/ha): 100 | Plant response rating, Waterhemp_RES1 [2, 7]: 80 | Plant response rating, Waterhemp_RES1 [2, 5]: 90 | Plant response rating, Waterhemp_RES1 [2, 6]: 100 | Plant response rating, Waterhemp_RES1 [2, 8]: 100 | Plant response rating, Waterhemp_RES1 [2, 9]: 70 | Plant response rating, Waterhemp_RES2 [3, 7]: 90 | Plant response rating, Waterhemp_RES2 [3, 5]: 90 | Plant response rating, Waterhemp_RES2 [3, 6]: 100 | Plant response rating, Waterhemp_RES2 [3, 8]: 100 | Plant response rating, Waterhemp_RES2 [3, 9]: 90 | Plant response rating, Waterhemp (waterhemp; [7]): 90 | Plant response rating, Waterhemp (waterhemp; [5]): 95 | Plant response rating, Waterhemp (waterhemp; [6]): 95 | Plant response rating, Waterhemp (waterhemp; [8]): 100 | Plant response rating, Waterhemp (waterhemp; [9]): 80 | Plant response rating, Panicum, Fall (fall panicum [4]; [7]): 10 | Plant response rating, Panicum, Fall (fall panicum [4]; [5]): 20 | Plant response rating, Panicum, Fall (fall panicum [4]; [6]): 50 | Plant response rating, Panicum, Fall (fall panicum [4]; [8]): 50 | Plant response rating, Panicum, Fall (fall panicum [4]; [9]): 10 | Plant response rating, Ryegrass, Italian (Italian ryegrass; [7]): 0 | Plant response rating, Ryegrass, Italian (Italian ryegrass; [5]): 0 | Plant response rating, Ryegrass, Italian (Italian ryegrass; [6]): 0 | Plant response rating, Ryegrass, Italian (Italian ryegrass; [8]): 0 | Plant response rating, Ryegrass, Italian (Italian ryegrass; [9]): 0 | Plant response rating, Dayflower, VA (dayflower; [7]): 25 | Plant response rating, Dayflower, VA (dayflower; [5]): 40 | Plant response rating, Dayflower, VA (dayflower; [6]): 60 | Plant response rating, Dayflower, VA (dayflower; [8]): 70 | Plant response rating, Dayflower, VA (dayflower; [9]): 15 | Plant response rating, Beggarticks (hairy beggarticks; [7]): 60 | Plant response rating, Beggarticks (hairy beggarticks; [5]): 70 | Plant response rating, Beggarticks (hairy beggarticks; [6]): 90 | Plant response rating, Beggarticks (hairy beggarticks; [8]): 95 | Plant response rating, Beggarticks (hairy beggarticks; [9]): 50
